These results are taken from a melting point compilation (Tetko et al.; mined from patent text by program, amines drawn as free bases though some values may be those of a salt).

A word on the melting point: it is the temperature of the solid-liquid transition.

Structures are written as SMILES.

`CCOC(=O)c1cc2ccc3oc4ccccc4c3c2n1C`: the melting point was 114 to 116 °C. In turn, `COC(=O)c1nc(-c2cc(OC)c(Cl)cc2F)cc(NC(C)=O)c1Cl` had a melting point of 180 to 182 °C. As to `CCN(CC)CCn1c(Cl)c(C(=O)NC)c2ccccc21`, the melting point fell in the range of 103 to 104 °C.

With `CC(C)(C)c1ccc(C(=O)Nc2cn3nc(NC4CCCC4)ccc3n2)cc1`, the melting point was in the range of 272 to 273 °C. Compound `CC1=C(C(=O)CCl)C2(C)CCC3C(CC=C4CC(O)CCC43C)C2C1` (centres undefined) displayed a melting point of 170 to 172 °C. `Nc1ccc(CCN2CCN(c3ccc(N)cc3Cl)CC2)cc1`: the melting point lay within 109 to 112 °C. In turn, `Nc1nc2nc(SCc3ccccc3)ncc2cc1Oc1ccc(F)cc1` returned a melting point of 186 to 192 °C.

The compound `O=c1c2ccccc2nc(-c2sc(Nc3ccccc3)nc2-c2ccccc2)n1-c1ccccc1Cl` displayed a melting point of 210 to 212 °C. For `C=C(Cl)C[C@H](CC(=O)O)C(=O)N[C@@H](CC1CCCCC1)[C@@H](O)[C@@H](O)CC(C)C`, the melting point is 193 to 196 °C. To `OCc1cc(OCc2ccccc2)c(OCc2ccccc2)cn1` belongs 96.6 °C; to `CS(=O)(=O)c1ccc(C2=C(c3ccc(F)cc3)C(=O)OC2)c(F)c1`, 160 to 162 °C; to `CCCCn1c(=O)n2cnnc2c2[nH]c(-c3cc(S(=O)(=O)N4CCN(C(C)(C)CO)CC4)ccc3OCCC)nc21`, 237 °C. `O=C(Nc1ccc2c(c1)CCN(Cc1ccccc1)C2)c1ccccc1-c1ccc(C(F)(F)F)cc1` yielded a melting point of 230 to 232 °C. With `FC(F)(F)c1ccc(C=Cc2nc(CNc3ccc(OCCCn4ccnn4)cc3)co2)cc1`, the melting point lay within 134 to 136 °C. For `CCOC(=O)/C(=N/OC)c1ccc(OCCOc2ccc3ccccc3c2)s1`, the melting point fell in the range of 132 to 134 °C. `CCCCN(CCCC)c1ccc(C=Cc2ccc(C=CC3=C(C#N)C(=C(C#N)C#N)OC3(C)C)s2)c(OCc2ccccc2)c1` yielded a melting point of 218 to 219 °C. For the compound `CC1CCN(c2ccc(-c3nc(C(=O)Nc4nccs4)c(-c4ccc(Cl)cc4)[nH]3)cc2)CC1`, the melting point was over 250 °C. `Cn1cc(C2=C(c3c4n(c5ccccc35)CCC(CNC(=O)c3ccccc3)C4)C(=O)NC2=O)c2ccccc21` (centres undefined): the melting point was 297 to 303 °C. `CC(C)(C)OC(=O)CCc1cccc(-c2nc(=O)c3ccc(C(F)(F)F)cc3s2)n1` came in with a melting point of 148 to 149 °C. `COc1cccc2c1CCC(O)(C(C)=O)C2` (centres undefined): the melting point was in the range of 63 to 63.5 °C. To `COc1cc(OC)c2nc[nH]c(=O)c2c1` belongs 280 to 282 °C; to `COc1cccc2c1C13CCN(C(=O)C4CC4)C(C2)C1CCC(=O)C3` (centres undefined), 144 to 147 °C; to `O=C(Nc1ccc2[nH]ncc2c1)OC(c1cccc(C(=O)Nc2ccccc2)c1)[C@@H]1CCCCN1` (some centres undefined), 150 °C.

In the case of `CCOC(=O)c1cnc2nn(CC)cc2c1O`, the melting point lay in the range of 197 to 198 °C.

`O=C(C=Cc1ccccc1)CC(=O)c1ccccc1` displayed a melting point of 108 °C. `Cc1cc2c(cc1Cl)N(C(=O)Nc1ccncc1)CC2`: the melting point was over 230 °C.

With `O=C(COc1cc(-c2cccc(Cl)c2)nc2ccccc12)N1CCOCC1`, the melting point is 131 °C.

For the compound `O=C1O[C@@H](CNC(=S)C(F)F)CN1c1ccc(C2CCS(=O)CC2)c(F)c1` (some centres undefined), the melting point is 192 to 194 °C. Consider `COc1ccc(CCN2CCC(C(=O)c3csc4ccccc34)CC2)cc1`, for which the melting point lay in the range of 114 to 116 °C. `CC(C)c1cccc(C(C)C)c1N1C(=O)c2ccccc2C1=O`: the melting point stood at 172 °C. As to `CCCCCCCCCCCC(=O)N(N=C=S)C(CCCCN)C(=O)O` (centres undefined), the melting point lay in the range of 37 to 39 °C. In turn, `N#Cc1nn(-c2c(Cl)cc(C(F)(F)F)cc2Cl)c(N)c1S(=O)(=O)c1ccc(Cl)cc1` yielded a melting point of 90 to 95 °C. In turn, `COCc1cc(-n2nc(C(F)(F)F)cc2-c2ccc(-c3ccco3)cc2)ccc1S(C)(=O)=O` gave a melting point of 142 to 143 °C. Consider `Cc1nc2c(N)nc3ccccc3c2n1CCOCCN1CCCS1(=O)=O`, for which the melting point lay in the range of 186 to 187 °C.

`Cc1cc2c(c(-c3cc(Cl)ccc3Cl)c1)OC(CN)C2` (centres undefined) displayed a melting point of 155 to 156 °C. As for `CC(C)c1ccc2c(c1)c(Sc1nc3cc(Cl)ccc3s1)c(CC(C)(C)C(=O)O)n2Cc1ccc(Cl)cc1`, the melting point is 154 to 156 °C.

Compound `CC(=O)Nc1ccc2cc(S(N)(=O)=O)sc2c1` registered a melting point of 214 to 217 °C.

Compound `Cc1ccc(C)c(C2CC(=O)C=C(N)C2)c1` (centres undefined) displayed a melting point of 169 to 170 °C. `COc1ccc(-c2c(=O)[nH]c3cc(Cl)c(Cl)cc3[n+]2[O-])cc1` registered a melting point of 262 to 264 °C. The compound `O=C(CN1C(=O)CC1Sc1ccc(Cl)cc1)NCCCCCCc1ccccc1` (centres undefined) returned a melting point of 52 to 54 °C. Compound `O=C(O)CCc1ccc2c(c1)OCO2` gave a melting point of 86.1 to 88.3 °C. `COC(=O)Nc1ccc(CC(=O)Nc2cccc3c2C(=O)c2c-3n[nH]c2-c2ccc(OC)cc2)cc1` came in with a melting point of 257 °C. Consider `C=c1oc(=O)c(=O)oc1=C`, for which the melting point came to 44 °C. On to `CCCCCCN(CCCCCC)c1c(N[C@@H](Cc2cn(Cc3ccccc3)cn2)C(=O)O)c(=O)c1=O`, for which the melting point is 75 to 80 °C. As for `CCN(CC)Cc1ccc(N=C2NCCN2)c(Cl)c1`, the melting point was 113 to 115 °C.

With `CCCc1ccc(Cc2cccc(NC(N)=O)c2)n1CCC`, the melting point was in the range of 123 to 126 °C.

`COc1cc(C=CN(C)C)ccc1[N+](=O)[O-]` registered a melting point of 57 to 58.5 °C. The compound `CCCN(CCC)C(=O)C(CCC(=O)NC)NC(=O)OCc1ccccc1` (centres undefined) returned a melting point of 75 to 76 °C. Compound `CCS(=O)(=O)n1cc(C(=O)C2CSC(c3cccnc3)N2)c2ccc(OCc3ccccc3)cc21` (centres undefined) registered a melting point of 76 to 82 °C. In turn, `COC(=O)c1ccc(Nc2ccc(C#N)cc2NC(C)=O)cc1` came in with a melting point of 231 to 232 °C. The same measure for `CNC(=O)C1=CC(CF)(CF)Oc2ccccc21`: 138 to 139 °C; for `Cn1ccc2cc(NC(=O)Nc3cncnc3)ccc21`: 210 to 213 °C. In turn, `CC(C)c1cccc(C(C)C)c1NC(=O)NCC1c2ccccc2-c2ccccc21` registered a melting point of 217 to 218 °C.

The compound `COC(=O)C1=C(C)Nc2nccn2C1c1cccc(N)c1` (centres undefined) yielded a melting point of 224 to 225 °C.

Compound `CCOC(=O)N1CCc2nc3ccccc3c(N3CCCC3)c2CC1` registered a melting point of 111 °C. To `O=C(O)c1ccc(OCCn2ccnc2)c(Cl)c1` belongs 204 °C; to `CC(=O)N(C)C1Cc2ccc(C(=O)Cn3cnc4cc(-c5ccc(Cl)cc5)sc4c3=O)cc2C1` (centres undefined), 276 °C. `CCCCCc1ccc(OC(=O)N2CCC(OC(=O)NCCCCCCOC(=O)N3CCC4(CCCC4)CC3)CC2)cc1` registered a melting point of 100 to 102 °C. The same measure for `Cc1c(OCCCCCCC(=O)N(CCO)C2CCCCC2)ccc2c1CN1CC(=O)NC1=N2`: 148 to 150 °C; for `N#CC(c1ccc(F)cc1)c1ccc(F)cc1`: 62 to 63.5 °C; for `CS(=O)(=O)Nc1cc(-c2nc3ccccn3c2Br)c(F)cc1F`: 202 °C. The same measure for `O=C(Nc1ccc(C(CC2CCCC2)C(=O)O)cc1)c1cccnc1` (centres undefined): 160 to 163 °C. As to `O=CNNc1ccc(NC(=O)c2cccc([N+](=O)[O-])c2)cc1`, the melting point was in the range of 185 to 187 °C. Turning to `CCCC(=O)c1ccc(OCCCC(=O)O)c(Cl)c1Cl`, the melting point was 111 to 113 °C. To `CN(C)C1(Cc2ccccc2)CCC(O)(c2csc3ccccc23)CC1` (centres undefined) belongs 158 to 160 °C; to `CC(=O)NC(Cc1ccccc1)C(=O)Nc1c(C(C)C)cccc1C(C)C` (centres undefined), 228 to 229 °C. As for `NC(=S)c1cn(COCCO)c2ncnc(N)c12`, the melting point is 186 to 188 °C. As for `CC(C)(CO)C[C@H]1COC(C)(C)N1C(=O)OC(C)(C)C`, the melting point lay within 45 to 46 °C. Regarding `CCc1cnc2c(NC(=O)c3c(Cl)cccc3Cl)cccc2c1-n1ccnc1`, the melting point was in the range of 187 to 188 °C.

On to `Cc1nccnc1OCC1COC(C)(C)O1` (centres undefined), for which the melting point is 77 to 78 °C.

Consider `CCCOc1ccc(S(C)(=O)=O)cc1-c1nc2c(CC)n[nH]c2c(=O)[nH]1`, for which the melting point lay within 276 to 277 °C. Compound `CCOc1nn(-c2ccc(C(F)(F)F)cn2)cc1CCCOc1ccccc1CCC(=O)O` showed a melting point of 93 to 94 °C. As to `O=[N+]([O-])c1cccnc1Sc1nc(Cl)no1`, the melting point came to 84 °C. The same measure for `N[C@@H](Cc1ccc(C(F)(F)F)cc1)[C@H](O)c1ccc(F)c(F)c1` (racemic): 99 to 100 °C. As for `CN(C)c1ccc([N+](=O)[O-])cn1`, the melting point lay within 146 to 149 °C. The same measure for `CC(C)c1cccc(C(C)C)c1NC(=O)NS(=O)(=O)Oc1c(C(C)C)cccc1C(C)C`: 186 to 189 °C; for `c1ccc(-c2nnn[nH]2)c(-c2ccc(CNc3ccnc4ccnn34)cc2)c1`: 150 to 155 °C.

`COc1cc2c(-c3ccnc(NN)c3)c(CO)c(CO)cc2cc1OC(C)C` came in with a melting point of 128 to 131 °C. As to `Cc1cc2ccccn2c1`, the melting point is 57 to 58 °C. To `C=CCOc1ccc(C(=O)c2ccc(OCC=C)cc2O)c(O)c1` belongs 95 °C. In turn, `O=C(Cc1cccs1)N1C(=O)OC[C@@H]1Cc1ccccc1` showed a melting point of 56 to 59 °C. `Cc1cc(C)n2nc(S(=O)(=O)N(C)c3c(Cl)cccc3Cl)nc2n1` registered a melting point of 220 to 222 °C. In turn, `CCC(CC)N1CCC(CNc2ccc(Cl)cc2C(=O)Nc2ccc(Cl)cn2)CC1` had a melting point of 136 to 138 °C.

Compound `NCC(O)C1COc2ccccc2O1` (centres undefined) returned a melting point of 86 to 88 °C.

On to `Cc1cc(=O)c(O)co1`, for which the melting point fell in the range of 152 to 153 °C.

As to `Cc1nn(C)c(OCC(=O)c2ccccc2)c1C(=O)c1ccc(Cl)c(C)c1Cl`, the melting point lay in the range of 150 to 152 °C. `COc1cc2c(Nc3ccc(Cl)cc3F)ncnc2cc1OCCN1CCN(C)CC1` showed a melting point of 173 to 175 °C. Take `OCCCc1cnoc1-c1ccc2c(c1)OCO2`: the melting point was in the range of 45 to 46 °C. To `Cc1cc(-n2nc(C(F)F)cc2-c2ccc(S(C)(=O)=O)cc2)ccc1F` belongs 154 to 155 °C.
